# Data published in US20130303509A1, “NAMPT INHIBITORS” (AbbVie Inc., priority 2012, published 2013).
# System: PC3 cells
# Assay: NAMPT Cell Proliferation Assay
# Assay type: cell-based
# Conditions: Homo sapiens, PC-3, 120 h, 5 days incubation, cell viability by Cell Titer Glo
# Outline: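 Seeded at 500 cells/well in RPMI with 10% heat-inactivated FBS and left to attach overnight at 37° C, 5% CO2. Compounds were added as 10-fold dilutions […] for 5 days, then viability was read by CellTiter-Glo. IC50s came from sigmoidal fits of percent inhibition.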
row,IC50 [nM],Compound
1,63.2,"O=C(Nc1ccc(O[C@@H]2CCN(C(=O)Cc3cccc(F)c3)C2)cc1)C1CN(c2ccnnc2)C1 [Example 452, N-[4-({(3R)-1-[(3-fluorophenyl)acetyl]pyrrolidin-3-yl}oxy)phenyl]-1-(pyridazin-4-yl)azetidine-3-carboxamide]"
2,1860,"N#Cc1ncccc1N1CC(C(=O)Nc2ccc(C3CCN(C(=O)c4ccccc4)CC3)cc2)C1 [Example 737, N-[4-(1-benzoylpiperidin-4-yl)phenyl]-1-(2-cyanopyridin-3-yl)azetidine-3-carboxamide]"
3,116,"Cc1ncccc1N1CC(C(=O)Nc2ccc(C3CCN(C(=O)c4cccc(F)c4)CC3)cc2)C1 [Example 152, N-{4-[1-(3-fluorobenzoyl)piperidin-4-yl]phenyl}-1-(2-methylpyridin-3-yl)azetidine-3-carboxamide]"
4,148,"O=C(Nc1ccc(OC2CCN(C(=O)CC(F)(F)F)CC2)cc1)[C@H]1CCN(c2cccnc2)C1 [Example 18, (3S)-1-(pyridin-3-yl)-N-(4-{[1-(3,3,3-trifluoropropanoyl)piperidin-4-yl]oxy}phenyl)pyrrolidine-3-carboxamide]"
5,6.3,"O=C(Nc1ccc(O[C@@H]2CCN(C(=O)Cc3ccc(F)cc3F)C2)cc1)C1CN(c2cccnn2)C1 [Example 496, N-[4-({(3R)-1-[(2,4-difluorophenyl)acetyl]pyrrolidin-3-yl}oxy)phenyl]-1-(pyridazin-3-yl)azetidine-3-carboxamide]"
6,12.1,"CC(C)(C)C(=O)N1CC[C@@H](Oc2ccc(NC(=O)C3CN(c4ccnnc4)C3)cc2)C1 [Example 481, N-(4-{[(3R)-1-(2,2-dimethylpropanoyl)pyrrolidin-3-yl]oxy}phenyl)-1-(pyridazin-4-yl)azetidine-3-carboxamide]"
7,8.49,"O=C(Nc1ccc(C2CCN(C(=O)CC3CC3)CC2)cc1F)C1CN(c2cccnn2)C1 [Example 862, N-{4-[1-(cyclopropylacetyl)piperidin-4-yl]-2-fluorophenyl}-1-(pyridazin-3-yl)azetidine-3-carboxamide]"
8,8.26,"Cc1ccc(S(=O)(=O)NCC(=O)N2CCC(c3ccc(NC(=O)C4CN(c5cccnn5)C4)cc3)CC2)cc1 [Example 418, N-[4-(1-{N-[(4-methylphenyl)sulfonyl]glycyl}piperidin-4-yl)phenyl]-1-(pyridazin-3-yl)azetidine-3-carboxamide]"
9,76.1,"CC1CC1C(=O)N1CC(Oc2ccc(NC(=O)C3CN(c4ccnnc4)C3)cc2)C1 (centres unmarked) [Example 257, N-[4-({1-[(2-methylcyclopropyl)carbonyl]azetidin-3-yl}oxy)phenyl]-1-(pyridazin-4-yl)azetidine-3-carboxamide]"
10,12.5,"Cc1ccc(N2CC(C(=O)Nc3ccc(C4CCN(C(=O)c5ccccc5)CC4)cc3)C2)nn1 [Example 667, N-[4-(1-benzoylpiperidin-4-yl)phenyl]-1-(6-methylpyridazin-3-yl)azetidine-3-carboxamide]"
11,627,"O=C(Nc1ccc(S(=O)(=O)C2CCN(C(=O)Cc3cccc(F)c3)CC2)cc1)C1CN(c2cccnn2)C1 [Example 582, N-[4-({1-[(3-fluorophenyl)acetyl]piperidin-4-yl}sulfonyl)phenyl]-1-(pyridazin-3-yl)azetidine-3-carboxamide]"
12,8.8,"O=C(Nc1ccc(C2CN(C(=O)c3ccc(F)cc3F)C2)cc1)[C@H]1CCN(c2cccnn2)C1 [Example 792, (3S)-N-{4-[1-(2,4-difluorobenzoyl)azetidin-3-yl]phenyl}-1-(pyridazin-3-yl)pyrrolidine-3-carboxamide]"
13,61,"Cc1ccc(C(=O)N2CCC(c3ccc(NC(=O)[C@H]4CCN(c5cccnn5)C4)cc3)CC2)cn1 [Example 656, (3S)-N-(4-{1-[(6-methylpyridin-3-yl)carbonyl]piperidin-4-yl}phenyl)-1-(pyridazin-3-yl)pyrrolidine-3-carboxamide]"
14,69.9,"O=C(Nc1ccc(-c2cnn(CC3CC3)c2)cc1)[C@H]1CCN(c2cccnn2)C1 [Example 771, (3S)-N-{4-[1-(cyclopropylmethyl)-1H-pyrazol-4-yl]phenyl}-1-(pyridazin-3-yl)pyrrolidine-3-carboxamide]"
15,16.9,"CC(C)(C(=O)N1CCC(Oc2ccc(NC(=O)C3CN(c4ccnnc4)C3)cc2)CC1)c1ccccc1 [Example 281, N-(4-{[1-(2-methyl-2-phenylpropanoyl)piperidin-4-yl]oxy}phenyl)-1-(pyridazin-4-yl)azetidine-3-carboxamide]"
16,32.7,"N#Cc1ccc(C(=O)N2CCC(c3ccc(NC(=O)[C@H]4CCN(c5cccnn5)C4)cc3)CC2)cc1 [Example 726, (3S)-N-{4-[1-(4-cyanobenzoyl)piperidin-4-yl]phenyl}-1-(pyridazin-3-yl)pyrrolidine-3-carboxamide]"
17,11,"O=C(NC1CN(c2cccnn2)C1)c1ccc(C2CCN(C(=O)c3ccccc3F)CC2)s1 [Example 811, 5-[1-(2-fluorobenzoyl)piperidin-4-yl]-N-[1-(pyridazin-3-yl)azetidin-3-yl]thiophene-2-carboxamide]"
18,60.9,"O=C(Nc1ccc(OC2CN(C(=O)C(F)(F)c3ccccc3)C2)cc1)C1CN(c2ccnnc2)C1 [Example 201, N-[4-({1-[difluoro(phenyl)acetyl]azetidin-3-yl}oxy)phenyl]-1-(pyridazin-4-yl)azetidine-3-carboxamide]"

row,IC50 [nM],Compound
1,2.52,"O=C(Nc1ccc(O[C@@H]2CCN(C(=O)c3ccccc3)C2)cc1)[C@H]1CCN(c2cccnn2)C1 [Example 774, (3S)—N-(4-{[(3R)-1-benzoylpyrrolidin-3-yl]oxy}phenyl)-1-(pyridazin-3-yl)pyrrolidine-3-carboxamide]"
2,1.11,"C#CCCC(=O)N1CCC(c2ccc(NC(=O)C3CN(c4cccnn4)C3)cc2)CC1 [Example 338, N-{4-[1-(pent-4-ynoyl)piperidin-4-yl]phenyl}-1-(pyridazin-3-yl)azetidine-3-carboxamide]"
3,24.8,"O=C(Nc1ccc(OC2CCN(C(=O)Cc3cccc(F)c3)CC2)cc1)C1CN(c2ccnnc2)C1 [Example 288, N-[4-({1-[(3-fluorophenyl)acetyl]piperidin-4-yl}oxy)phenyl]-1-(pyridazin-4-yl)azetidine-3-carboxamide]"
4,1150,"CC(C)Cn1cc(-c2cc(C(=O)N[C@H]3CCN(c4cccnn4)C3)cs2)cn1 [Example 664, 5-[1-(2-methylpropyl)-1H-pyrazol-4-yl]-N-[(3S)-1-(pyridazin-3-yl)pyrrolidin-3-yl]thiophene-3-carboxamide]"
5,> 10000,"Cc1ccc(N2CC(C(=O)Nc3ccc(C4CCN(C(=O)c5ccccc5)CC4)cc3)C2)c(F)n1 [Example 668, N-[4-(1-benzoylpiperidin-4-yl)phenyl]-1-(2-fluoro-6-methylpyridin-3-yl)azetidine-3-carboxamide]"
6,1.8,"CCC(=O)N1CCC(c2ccc(NC(=O)C3CN(c4cccnn4)C3)cc2)CC1 [Example 440, N-[4-(1-propanoylpiperidin-4-yl)phenyl]-1-(pyridazin-3-yl)azetidine-3-carboxamide]"
7,7650,"CC(C)Cn1cc(-c2ccc(C(=O)N[C@H]3CCN(c4ccnnc4)C3)s2)cn1 [Example 607, 5-[1-(2-methylpropyl)-1H-pyrazol-4-yl]-N-[(3S)-1-(pyridazin-4-yl)pyrrolidin-3-yl]thiophene-2-carboxamide]"
8,58.4,"CC(C)CCN1CCC(c2ccc(NC(=O)C3CN(c4cccnc4)C3)cc2)CC1 [Example 93, N-{4-[1-(3-methylbutyl)piperidin-4-yl]phenyl}-1-(pyridin-3-yl)azetidine-3-carboxamide]"
9,75.2,"O=C(Nc1ccc(C2CCN(C(=O)c3cccc(OC(F)(F)F)c3)CC2)cc1)[C@H]1CCN(c2cccnn2)C1 [Example 701, (3S)-1-(pyridazin-3-yl)-N-(4-{1-[3-(trifluoromethoxy)benzoyl]piperidin-4-yl}phenyl)pyrrolidine-3-carboxamide]"
10,76.5,"Cc1ccc(C(=O)N2CCC(S(=O)(=O)c3ccc(NC(=O)C4CN(c5cccnn5)C4)cc3)CC2)cc1 [Example 567, N-(4-{[1-(4-methylbenzoyl)piperidin-4-yl]sulfonyl}phenyl)-1-(pyridazin-3-yl)azetidine-3-carboxamide]"
11,6.88,"CCCC(=O)N1CCC(Oc2ccc(NC(=O)C3CN(c4cccnc4)C3)cc2)CC1 [Example 43, N-{4-[(1-butanoylpiperidin-4-yl)oxy]phenyl}-1-(pyridin-3-yl)azetidine-3-carboxamide]"
12,8.45,"O=C(Nc1ccc(O[C@@H]2CCN(C(=O)Cc3ccc(F)cc3)C2)cc1)C1CN(c2cccnn2)C1 [Example 491, N-[4-({(3R)-1-[(4-fluorophenyl)acetyl]pyrrolidin-3-yl}oxy)phenyl]-1-(pyridazin-3-yl)azetidine-3-carboxamide]"
13,7.17,"O=C(Nc1ccc(C2CCN(C(=O)c3cccc(Cl)c3)CC2)cc1)C1CN(c2ccnnc2)C1 [Example 544, N-{4-[1-(3-chlorobenzoyl)piperidin-4-yl]phenyl}-1-(pyridazin-4-yl)azetidine-3-carboxamide]"
14,218,"Cc1ncccc1N1CC(C(=O)Nc2ccc(C3CCN(C(=O)CCC(C)C)CC3)cc2)C1 [Example 176, N-{4-[1-(4-methylpentanoyl)piperidin-4-yl]phenyl}-1-(2-methylpyridin-3-yl)azetidine-3-carboxamide]"
15,2.7,"O=C(Nc1ccc(C2CCN(C(=O)Cc3cccc(Cl)c3)CC2)cc1)C1CN(c2cccnn2)C1 [Example 404, N-(4-{1-[(3-chlorophenyl)acetyl]piperidin-4-yl}phenyl)-1-(pyridazin-3-yl)azetidine-3-carboxamide]"
16,78,"O=C(Nc1ccc(O[C@@H]2CCN(C(=O)CC3CC3)C2)cc1)C1CN(c2ccnnc2)C1 [Example 444, N-(4-{[(3R)-1-(cyclopropylacetyl)pyrrolidin-3-yl]oxy}phenyl)-1-(pyridazin-4-yl)azetidine-3-carboxamide]"
17,1.24,"O=C(Nc1ccc(C2CCN(C(=O)c3ccccc3F)CC2)cc1)[C@H]1CCN(c2cccnn2)C1 [Example 637, (3S)-N-{4-[1-(2-fluorobenzoyl)piperidin-4-yl]phenyl}-1-(pyridazin-3-yl)pyrrolidine-3-carboxamide]"
